Consider two compounds from US12077503B2, “Substituted cyclic amides and their use as herbicides” (FMC CORPORATION, priority 2015, dated 2024).

Where two headings read alike, the source gives them in different places.

Holding throughout (type): in vivo
The test system of experiment [1] is giant foxtail (Setaria faberii). The experiment in a line: Test A preemergence. Particulars: Setaria faberi, pre-emergence, 240 h; for pest or weed control at 125 g/ha: 125 g ai/ha; for pest or weed control at 500 g/ha: 500 g ai/ha. In outline:
(§1)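 Visual injury scores from 0, no effect, to 100, complete control, were assigned versus untreated controls roughly 10 d after treatment in the greenhouse. Test chemicals, formulated with surfactant in a non-phytotoxic solvent, were applied to planted seeds as a preemergence soil spray or postemergence to one- to two-leaf plants 2 to 10 cm tall, in loam–sand soil.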

Experiment [2] shares this test system. Nature of the experiment: Test A postemergence. Particulars: Setaria faberi, post-emergence, 240 h, postemergence; for pest or weed control at 125 g/ha: 125 g ai/ha. The method, boiled down: as §1
Experiment [3] deals with Galium (catchweed bedstraw, Galium aparine). The experiment in a line: Test A postemergence. Particulars: Galium, post-emergence, 240 h, postemergence; for pest or weed control at 125 g/ha: 125 g ai/ha. In outline: as §1
The subject of experiment [4] is Kochia (Kochia scoparia). Nature of the experiment: Test A postemergence. Particulars: Bassia scoparia, post-emergence, 240 h, postemergence; for pest or weed control at 125 g/ha: 125 g ai/ha. In outline: as §1
The test system of experiment [5] is barnyardgrass (Echinochloa crus-galli). The experiment in a line: Test A postemergence. Particulars: Echinochloa crus-galli, post-emergence, 240 h, postemergence; for pest or weed control at 125 g/ha: 125 g ai/ha. In outline: as §1
Experiment [6] relates to ragweed (common ragweed, Ambrosia elatior). Nature of the experiment: Test A postemergence. Particulars: Ambrosia artemisiifolia, post-emergence, 240 h, postemergence; for pest or weed control at 125 g/ha: 125 g ai/ha. The method, boiled down: as §1
Experiment [7] has as its system corn (Zea mays). Nature of the experiment: Test A postemergence. Particulars: Zea mays, post-emergence, 240 h, postemergence; for plant injury at 125 g/ha: 125 g ai/ha. In outline: as §1
Experiment [8] concerns ryegrass, Italian (Italian ryegrass, Lolium multiflorum). Nature of the experiment: Test A postemergence. Particulars: Lolium multiflorum, post-emergence, 240 h, postemergence; for pest or weed control at 125 g/ha: 125 g ai/ha. In outline: as §1
The test system of experiment [9] is blackgrass (Alopecurus myosuroides). The experiment in a line: Test A postemergence. Particulars: Alopecurus myosuroides, post-emergence, 240 h, postemergence; for pest or weed control at 125 g/ha: 125 g ai/ha. In outline:
as §1

In experiment [10] the test system is pigweed (Amaranthus retroflexus). The experiment in a line: Test A postemergence. Particulars: Amaranthus retroflexus, post-emergence, 240 h, postemergence; for pest or weed control at 125 g/ha: 125 g ai/ha. In outline: as §1
In experiment [11] the test system is wheat (Triticum aestivum). Nature of the experiment: Test A postemergence. Particulars: Triticum aestivum, post-emergence, 240 h, postemergence; for plant injury at 125 g/ha: 125 g ai/ha. The method, boiled down:
as §1

Experiment [12] concerns ducksalad (Heteranthera limosa). Nature of the experiment: Test B flooded paddy test. Particulars: Heteranthera limosa, 250 g ai/ha, Flood, read-out: Ducksalad plant response rating. In outline:
(§2)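 Rating scale 0–100 (visual, vs untreated controls) after a 13–15 d greenhouse period; application to the flood layer, 3 cm above soil and maintained; plants at 2-leaf stage when treated.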

Experiment [13] deals with barnyardgrass (Echinochloa crus-galli). Nature of the experiment: Test B flooded paddy test. Particulars: Echinochloa crus-galli, 250 g ai/ha, Flood, read-out: Barnyardgrass plant response rating. In outline:
as §2

Experiment [14] relates to sedge, umbrella (small-flower umbrella sedge, Cyperus difformis). The experiment in a line: Test B flooded paddy test. Particulars: Cyperus difformis, 250 g ai/ha, Flood, read-out: Sedge, Umbrella plant response rating. In outline:
as §2

The test system of experiment [15] is rice (Oryra sativa). The experiment in a line: Test B flooded paddy test. Particulars: Oryza sativa, 250 g ai/ha, Flood, read-out: Rice plant response rating. The method, boiled down:
as §2

The mark [16] stands for this setting: preemergence, 0 to 100 scale where 0 is no effect and 100 is complete control, read-out: Foxtail, Giant plant response rating.
The mark [17] stands for this setting: 0 to 100 scale where 0 is no effect and 100 is complete control.
The mark [18] stands for this setting: scale of 0 to 100 where 0 is no effect and 100 is complete control.

As to `O=C1NCC[C@H](c2cccc(Cl)c2)[C@H]1C(=O)Nc1ccccc1F` [Compound 1159], the pest or weed control at 125 g/ha in experiment [1] (preemergence, 0 to 100 scale where 0 is no effect and 100 is complete control, approx. 10 d, read-out: Foxtail, Giant plant response rating) was 70%; in [2] (visual injury vs untreated controls after approx. 10 d, 0 = no effect, 100 = complete control, read-out: Foxtail, Giant plant response rating (0 to 100 scale)) it was 40%; in [3] (visual injury vs untreated controls after approx. 10 d, 0 = no effect, 100 = complete control, read-out: Galium plant response rating (0 to 100 scale)), 20%; in experiment [4] (visual injury vs untreated controls after approx. 10 d, 0 = no effect, 100 = complete control, read-out: Kochia plant response rating (0 to 100 scale)) it was 0%; in experiment [5] (visual injury vs untreated controls after approx. 10 d, 0 = no effect, 100 = complete control, read-out: Barnyardgrass plant response rating (0 to 100 scale)), 90%; in experiment [6] (visual injury vs untreated controls after approx. 10 d, 0 = no effect, 100 = complete control, read-out: Ragweed plant response rating (0 to 100 scale)), 0%. Besides, the pest or weed control at 125 g/ha in experiment [8] (visual injury vs untreated controls after approx. 10 d, 0 = no effect, 100 = complete control, read-out: Ryegrass, Italian plant response rating (0 to 100 scale)) turned out to be 0%; in experiment [9] (visual injury vs untreated controls after approx. 10 d, 0 = no effect, 100 = complete control, read-out: Blackgrass plant response rating (0 to 100 scale)), 0%; in experiment [10] (visual injury vs untreated controls after approx. 10 d, 0 = no effect, 100 = complete control, read-out: Pigweed plant response rating (0 to 100 scale)), 0%. The pest or weed control at 500 g/ha worked out at 90% in experiment [1] (setting [16]); 70% in experiment [2] (500 g ai/ha, 0 to 100 scale, 0 is no effect, 100 is complete control, read-out: Foxtail, Giant plant response rating); 20% in [3] (500 g ai/ha, 0 to 100 scale, 0 is no effect, 100 is complete control, read-out: Galium plant response rating); 0% in [4] (500 g ai/ha, 0 to 100 scale, 0 is no effect, 100 is complete control, read-out: Kochia plant response rating); 90% in experiment [5] (500 g ai/ha, 0 to 100 scale, 0 is no effect, 100 is complete control, read-out: Barnyardgrass plant response rating); 0% in experiment [6] (500 g ai/ha, 0 to 100 scale, 0 is no effect, 100 is complete control, read-out: Ragweed plant response rating). Further, the pest or weed control at 500 g/ha in experiment [8] (500 g ai/ha, 0 to 100 scale, 0 is no effect, 100 is complete control, read-out: Ryegrass, Italian plant response rating) was found to be 0%; in experiment [9] (500 g ai/ha, 0 to 100 scale, 0 is no effect, 100 is complete control, read-out: Blackgrass plant response rating) it was 0%; in [10] (500 g ai/ha, 0 to 100 scale, 0 is no effect, 100 is complete control, read-out: Pigweed plant response rating), 20%. Further, the plant injury at 125 g/ha in experiment [7] (visual injury vs untreated controls after approx. 10 d, 0 = no effect, 100 = complete control, read-out: Corn plant response rating (0 to 100 scale)) was found to be 0%; in [11] (visual injury vs untreated controls after approx. 10 d, 0 = no effect, 100 = complete control, read-out: Wheat plant response rating (0 to 100 scale)) it was 0%. The plant injury at 500 g/ha in experiment [7] (500 g ai/ha, 0 to 100 scale, 0 is no effect, 100 is complete control, read-out: Corn plant response rating) was 20%; in experiment [11] (500 g ai/ha, 0 to 100 scale, 0 is no effect, 100 is complete control, read-out: Wheat plant response rating), 0%. In addition, the pest or weed control at 250 g/ha stood at 70% in [12] (setting [17]), 0% in experiment [13] (setting [17]), 0% in [14] (setting [17]) and 0% in experiment [15] (setting [17]).
For `COc1ccc([C@H]2CN(C)C(=O)[C@@H]2C(=O)Nc2ccccc2F)cc1OC` [Compound 852], the pest or weed control at 125 g/ha in experiment [1] (setting [16]) stood at 90%; in experiment [2] (visual injury rating after approximately 10 d, read-out: Foxtail, Giant plant response rating (0 to 100 scale, 0 no effect, 100 complete control)), 80%; in experiment [3] (visual injury rating after approximately 10 d, read-out: Galium plant response rating (0 to 100 scale, 0 no effect, 100 complete control)) it was 0%; in experiment [4] (visual injury rating after approximately 10 d, read-out: Kochia plant response rating (0 to 100 scale, 0 no effect, 100 complete control)), 0%; in experiment [5] (visual injury rating after approximately 10 d, read-out: Barnyardgrass plant response rating (0 to 100 scale, 0 no effect, 100 complete control)), 90%; in [6] (visual injury rating after approximately 10 d, read-out: Ragweed plant response rating (0 to 100 scale, 0 no effect, 100 complete control)), 0%. The pest or weed control at 125 g/ha in experiment [8] (visual injury rating after approximately 10 d, read-out: Ryegrass, Italian plant response rating (0 to 100 scale, 0 no effect, 100 complete control)) was determined as 0%; in experiment [9] (visual injury rating after approximately 10 d, read-out: Blackgrass plant response rating (0 to 100 scale, 0 no effect, 100 complete control)) it was 0%; in experiment [10] (visual injury rating after approximately 10 d, read-out: Pigweed plant response rating (0 to 100 scale, 0 no effect, 100 complete control)), 0%. In experiment [1] (Preemergence, visual injury vs untreated controls after approximately 10 d, read-out: Foxtail, Giant plant response rating (0 to 100 scale where 0 is no effect and 100 is complete control)), the pest or weed control at 500 g/ha was 90%. Also, the plant injury at 125 g/ha came to 0% in experiment [7] (visual injury rating after approximately 10 d, read-out: Corn plant response rating (0 to 100 scale, 0 no effect, 100 complete control)) and 0% in [11] (visual injury rating after approximately 10 d, read-out: Wheat plant response rating (0 to 100 scale, 0 no effect, 100 complete control)). Moreover, the pest or weed control at 250 g/ha in [12] (setting [18]) amounted to 40%; in experiment [13] (setting [18]), 40%; in experiment [14] (setting [18]), 0%; in experiment [15] (setting [18]), 0%.
